# Results: patent US6531160B2, “Microcapsules with an aqueous core containing at least one water-soluble cosmetic or dermatological active principle and cosmetic or dermatological compositions containing them” (L′Oreal, priority 2000, dated 2003)
# Assay: Loss of active agent after storage for 2 months at 45° C. (microcapsule suspension vs control aqueous solution)
# Format: physicochemical
# Conditions: control aqueous solution of the active agent, same weight concentration
# Experimental: (§1) The microcapsule suspension thus obtained is stored for 2 months at a temperature of 45° C. After this storage period, the loss of cytochrome C from the suspension and that of a control aqueous solution of cytochrome C having the same weight concentration of 0.25% and which has been stored under the same conditions, are measured.
# as §1, with “chlorophylline” for “cytochrome C”, “0.1%,” for “0.25%”
# as §1, with “ascorbic acid” for “cytochrome C”, “5% and also a pH of 6,” for “0.25%”
row,"Loss of active agent after storage for 2 months at 45° C., non-encapsulated control [%]",Molecule
1,40,O=C1O[C@H]([C@@H](O)CO)C(O)=C1O [ascorbic acid]
2,60,chlorophylline

row,Molecule,"Loss of active agent after storage for 2 months at 45° C., non-encapsulated control [%]"
1,cytochrome C,60
